Results on one compound are retold here after patent US8202855B2, “Substituted beta-lactams” (Allergan, Inc, priority 2008, dated 2012).

This test deals with lashes and adjacent hairs of patients having glaucoma. The test can be described thus: Observation of lashes in glaucoma patients treated in one eye. Conditions: glaucoma patients treated in only one eye. The test is classed as in vivo. An excerpt: In the course of treating patients having glaucoma, treatment may only be appropriate in one eye. […] The lash appearance on the lids of the treated eyes would have appeared quite attractive if it represented a bilateral phenomenon. As a result of its asymmetric nature, the long lashes on one side could be construed as disturbing from a cosmetic standpoint. A systemic examination was preformed as a result of the asymmetric phenomenon. It soon became apparent that this altered appearance was not an isolated finding. […] Definite differences could be identified to varying degrees in the lashes and adjacent hairs of all patients who were taking the drug on a unilateral basis for longer than 6 months.
The changes in the lashes were apparent on gross inspection in several patients once attention was focused on the issue. In those with light colored hair and lashes, the differences were only seen easily with the aid of the high magnification and lighting capabilities of the slit lamp biomicroscope. In the course of glaucoma follow-up examination, attention is generally immediately focused on the eye itself. As a result of the high power magnification needed only one eye is seen at a time and the eye is seen at a high enough power that the lashes are not in focus. […]

Take `CCNC(=O)CCC/C=C\C[C@@H]1[C@@H](/C=C/[C@@H](O)CCc2ccccc2)[C@H](O)C[C@@H]1O` [bimatoprost]: the “lash appearance in treated eye versus non-treated eye” value is “longer, thicker, and fuller in the treated eye than in the non-treated eye”.
